± gives the expanded uncertainty stated by the source.
Test: xn = mol fraction of the nth substance listed
Conditions: Liquid, Vibrating tube method

CCCCCCCCCC [decane] + CCCO
mass density [kg/m3]
Conditions | 343.15 K | 353.15 K
100 kPa, x2 = 0.1391 | 687.56 ± 4.4 | 676.32 ± 4.3
100 kPa, x2 = 0.1907 | 688.32 ± 4.4 | 676.49 ± 4.3
100 kPa, x2 = 0.3001 | 690.77 ± 4.4 | 678.11 ± 4.3
100 kPa, x2 = 0.4326 | 694.55 ± 4.5 | 680.77 ± 4.4
100 kPa, x2 = 0.6863 | 710.6 ± 4.5 | 696.41 ± 4.5
100 kPa, x2 = 0.8711 | 732.51 ± 4.7 | 719.28 ± 4.6
1000 kPa, x2 = 0.1391 | – | 678.16 ± 4.3
1000 kPa, x2 = 0.1907 | – | 678.39 ± 4.3
1000 kPa, x2 = 0.8711 | – | 721.12 ± 4.6
1010 kPa, x2 = 0.1391 | 689.22 ± 4.4 | –
1010 kPa, x2 = 0.1907 | 690.02 ± 4.4 | –
1010 kPa, x2 = 0.3001 | 692.37 ± 4.4 | 679.67 ± 4.3
1010 kPa, x2 = 0.4326 | 696.46 ± 4.5 | –
1010 kPa, x2 = 0.6863 | 712.46 ± 4.6 | 698.52 ± 4.5
1010 kPa, x2 = 0.8711 | 734.14 ± 4.7 | –
1020 kPa, x2 = 0.4326 | – | 682.95 ± 4.4
2000 kPa, x2 = 0.6863 | 713.55 ± 4.6 | –
2010 kPa, x2 = 0.1391 | – | 679.31 ± 4.3
2010 kPa, x2 = 0.1907 | 691.1 ± 4.4 | –
2010 kPa, x2 = 0.3001 | 693.48 ± 4.4 | 680.84 ± 4.4
2010 kPa, x2 = 0.6863 | – | 699.68 ± 4.5
2010 kPa, x2 = 0.8711 | – | 722.21 ± 4.6
2020 kPa, x2 = 0.1391 | 690.3 ± 4.4 | –
2020 kPa, x2 = 0.1907 | – | 679.54 ± 4.3
2020 kPa, x2 = 0.4326 | 697.54 ± 4.5 | 684.1 ± 4.4
2020 kPa, x2 = 0.8711 | 735.16 ± 4.7 | –
3000 kPa, x2 = 0.1907 | – | 680.66 ± 4.4
3000 kPa, x2 = 0.3001 | – | 681.96 ± 4.4
3010 kPa, x2 = 0.1391 | 691.36 ± 4.4 | –
3010 kPa, x2 = 0.1907 | 692.15 ± 4.4 | –
3010 kPa, x2 = 0.3001 | 694.52 ± 4.5 | –
3010 kPa, x2 = 0.6863 | – | 700.85 ± 4.5
3010 kPa, x2 = 0.8711 | 736.2 ± 4.7 | –
3020 kPa, x2 = 0.1391 | – | 680.43 ± 4.4
3020 kPa, x2 = 0.4326 | 698.61 ± 4.5 | 685.26 ± 4.4
3020 kPa, x2 = 0.6863 | 714.64 ± 4.6 | –
3020 kPa, x2 = 0.8711 | – | 723.32 ± 4.6
4000 kPa, x2 = 0.1391 | 692.41 ± 4.4 | –
4000 kPa, x2 = 0.4326 | – | 686.44 ± 4.4
4000 kPa, x2 = 0.6863 | 715.75 ± 4.6 | –
4000 kPa, x2 = 0.8711 | 737.27 ± 4.7 | –
4010 kPa, x2 = 0.1391 | – | 681.55 ± 4.4
4010 kPa, x2 = 0.1907 | – | 681.83 ± 4.4
4010 kPa, x2 = 0.3001 | – | 683.13 ± 4.4
4010 kPa, x2 = 0.6863 | – | 702.05 ± 4.5
4020 kPa, x2 = 0.1907 | 693.23 ± 4.4 | –
4020 kPa, x2 = 0.3001 | 695.6 ± 4.5 | –
4020 kPa, x2 = 0.4326 | 699.72 ± 4.5 | –
4020 kPa, x2 = 0.8711 | – | 724.45 ± 4.6
5000 kPa, x2 = 0.4326 | 700.81 ± 4.5 | –
5000 kPa, x2 = 0.8711 | – | 725.63 ± 4.7
5010 kPa, x2 = 0.1391 | – | 682.67 ± 4.4
5010 kPa, x2 = 0.1907 | – | 682.92 ± 4.4
5010 kPa, x2 = 0.3001 | 696.69 ± 4.5 | 684.29 ± 4.4
5010 kPa, x2 = 0.4326 | – | 687.63 ± 4.4
5010 kPa, x2 = 0.6863 | 716.84 ± 4.6 | –
5020 kPa, x2 = 0.1391 | 693.45 ± 4.4 | –
5020 kPa, x2 = 0.1907 | 694.27 ± 4.5 | –
5020 kPa, x2 = 0.6863 | – | 703.25 ± 4.5
5020 kPa, x2 = 0.8711 | 738.33 ± 4.7 | –
6000 kPa, x2 = 0.6863 | – | 704.42 ± 4.5
6010 kPa, x2 = 0.1391 | – | 683.79 ± 4.4
6010 kPa, x2 = 0.1907 | 695.3 ± 4.5 | 684.03 ± 4.4
6010 kPa, x2 = 0.4326 | 701.9 ± 4.5 | 688.8 ± 4.4
6010 kPa, x2 = 0.6863 | 717.93 ± 4.6 | –
6010 kPa, x2 = 0.8711 | 739.41 ± 4.7 | –
6020 kPa, x2 = 0.1391 | 694.49 ± 4.5 | –
6020 kPa, x2 = 0.3001 | 697.74 ± 4.5 | 685.42 ± 4.4
6020 kPa, x2 = 0.8711 | – | 726.78 ± 4.7
7000 kPa, x2 = 0.4326 | 702.99 ± 4.5 | –
7000 kPa, x2 = 0.8711 | 740.46 ± 4.7 | –
7010 kPa, x2 = 0.1391 | 695.53 ± 4.5 | –
7010 kPa, x2 = 0.1907 | 696.35 ± 4.5 | –
7010 kPa, x2 = 0.3001 | 698.82 ± 4.5 | 686.6 ± 4.4
7010 kPa, x2 = 0.4326 | – | 690 ± 4.4
7010 kPa, x2 = 0.6863 | 719.02 ± 4.6 | –
7020 kPa, x2 = 0.1391 | – | 684.92 ± 4.4
7020 kPa, x2 = 0.1907 | – | 685.14 ± 4.4
7020 kPa, x2 = 0.6863 | – | 705.63 ± 4.5
7020 kPa, x2 = 0.8711 | – | 727.93 ± 4.7
8000 kPa, x2 = 0.1907 | 697.42 ± 4.5 | –
8000 kPa, x2 = 0.3001 | – | 687.74 ± 4.4
8000 kPa, x2 = 0.8711 | 741.52 ± 4.8 | –
8010 kPa, x2 = 0.1391 | 696.59 ± 4.5 | 686.06 ± 4.4
8010 kPa, x2 = 0.1907 | – | 686.32 ± 4.4
8010 kPa, x2 = 0.4326 | – | 691.17 ± 4.4
8010 kPa, x2 = 0.6863 | 720.12 ± 4.6 | 706.82 ± 4.5
8010 kPa, x2 = 0.8711 | – | 729.07 ± 4.7
8020 kPa, x2 = 0.3001 | 699.88 ± 4.5 | –
8020 kPa, x2 = 0.4326 | 704.06 ± 4.5 | –
9000 kPa, x2 = 0.1907 | 698.46 ± 4.5 | –
9000 kPa, x2 = 0.6863 | – | 708.03 ± 4.5
9010 kPa, x2 = 0.1391 | 697.61 ± 4.5 | –
9010 kPa, x2 = 0.3001 | 700.95 ± 4.5 | –
9010 kPa, x2 = 0.4326 | – | 692.36 ± 4.4
9010 kPa, x2 = 0.8711 | 742.57 ± 4.8 | 730.22 ± 4.7
9020 kPa, x2 = 0.1391 | – | 687.14 ± 4.4
9020 kPa, x2 = 0.1907 | – | 687.44 ± 4.4
9020 kPa, x2 = 0.3001 | – | 688.92 ± 4.4
9020 kPa, x2 = 0.4326 | 705.14 ± 4.5 | –
9020 kPa, x2 = 0.6863 | 721.21 ± 4.6 | –
10000 kPa, x2 = 0.4326 | 706.23 ± 4.5 | 693.57 ± 4.5
10000 kPa, x2 = 0.6863 | – | 709.2 ± 4.5
10010 kPa, x2 = 0.1391 | 698.62 ± 4.5 | 688.25 ± 4.4
10010 kPa, x2 = 0.3001 | 702.02 ± 4.5 | –
10010 kPa, x2 = 0.6863 | 722.27 ± 4.6 | –
10010 kPa, x2 = 0.8711 | 743.61 ± 4.8 | –
10020 kPa, x2 = 0.1907 | 699.47 ± 4.5 | –
11010 kPa, x2 = 0.1391 | 699.66 ± 4.5 | –
11010 kPa, x2 = 0.1907 | 700.5 ± 4.5 | –
11010 kPa, x2 = 0.4326 | 707.27 ± 4.5 | –
11010 kPa, x2 = 0.8711 | 744.65 ± 4.8 | –
11020 kPa, x2 = 0.3001 | 703.07 ± 4.5 | –
11020 kPa, x2 = 0.6863 | 723.34 ± 4.6 | –
12000 kPa, x2 = 0.4326 | 708.34 ± 4.5 | –
12000 kPa, x2 = 0.8711 | 745.65 ± 4.8 | –
12010 kPa, x2 = 0.1907 | 701.55 ± 4.5 | –
12010 kPa, x2 = 0.3001 | 704.1 ± 4.5 | –
12020 kPa, x2 = 0.1391 | 700.67 ± 4.5 | –
12020 kPa, x2 = 0.6863 | 724.37 ± 4.6 | –
13000 kPa, x2 = 0.1391 | 701.67 ± 4.5 | –
13000 kPa, x2 = 0.6863 | 725.42 ± 4.7 | –
13000 kPa, x2 = 0.8711 | 746.64 ± 4.8 | –
13010 kPa, x2 = 0.3001 | 705.15 ± 4.5 | –
13010 kPa, x2 = 0.4326 | 709.37 ± 4.5 | –
13020 kPa, x2 = 0.1907 | 702.55 ± 4.5 | –
14000 kPa, x2 = 0.3001 | 706.16 ± 4.5 | –
14000 kPa, x2 = 0.4326 | 710.39 ± 4.5 | –
14000 kPa, x2 = 0.6863 | 726.44 ± 4.7 | –
14000 kPa, x2 = 0.8711 | 747.65 ± 4.8 | –
14010 kPa, x2 = 0.1391 | 702.65 ± 4.5 | –
14020 kPa, x2 = 0.1907 | 703.54 ± 4.5 | –
15000 kPa, x2 = 0.1391 | 703.58 ± 4.5 | –
15000 kPa, x2 = 0.1907 | 704.5 ± 4.5 | –
15000 kPa, x2 = 0.6863 | 727.44 ± 4.7 | –
15010 kPa, x2 = 0.4326 | 711.38 ± 4.6 | –
15010 kPa, x2 = 0.8711 | 748.62 ± 4.8 | –
15020 kPa, x2 = 0.3001 | 707.12 ± 4.5 | –
16000 kPa, x2 = 0.6863 | 728.43 ± 4.7 | –
16000 kPa, x2 = 0.8711 | 749.58 ± 4.8 | –
16010 kPa, x2 = 0.1391 | 704.52 ± 4.5 | –
16010 kPa, x2 = 0.1907 | 705.46 ± 4.5 | –
16010 kPa, x2 = 0.3001 | 708.12 ± 4.5 | –
16020 kPa, x2 = 0.4326 | 712.37 ± 4.6 | –
17000 kPa, x2 = 0.1907 | 706.43 ± 4.5 | –
17000 kPa, x2 = 0.3001 | 709.07 ± 4.5 | –
17000 kPa, x2 = 0.4326 | 713.3 ± 4.6 | –
17010 kPa, x2 = 0.1391 | 705.45 ± 4.5 | –
17010 kPa, x2 = 0.6863 | 729.39 ± 4.7 | –
17010 kPa, x2 = 0.8711 | 750.52 ± 4.8 | –
18000 kPa, x2 = 0.6863 | 730.34 ± 4.7 | –
18010 kPa, x2 = 0.1907 | 707.33 ± 4.5 | –
18010 kPa, x2 = 0.3001 | 709.98 ± 4.6 | –
18010 kPa, x2 = 0.4326 | 714.25 ± 4.6 | –
18010 kPa, x2 = 0.8711 | 751.45 ± 4.8 | –
18020 kPa, x2 = 0.1391 | 706.37 ± 4.5 | –
19010 kPa, x2 = 0.1391 | 707.22 ± 4.5 | –
19010 kPa, x2 = 0.3001 | 710.9 ± 4.6 | –
19010 kPa, x2 = 0.4326 | 715.15 ± 4.6 | –
19010 kPa, x2 = 0.6863 | 731.24 ± 4.7 | –
19010 kPa, x2 = 0.8711 | 752.35 ± 4.8 | –
19020 kPa, x2 = 0.1907 | 708.2 ± 4.5 | –
20000 kPa, x2 = 0.1391 | 708.05 ± 4.5 | –
20000 kPa, x2 = 0.1907 | 709.04 ± 4.5 | –
20000 kPa, x2 = 0.8711 | 753.23 ± 4.8 | –
20010 kPa, x2 = 0.4326 | 716.08 ± 4.6 | –
20010 kPa, x2 = 0.6863 | 732.18 ± 4.7 | –
20020 kPa, x2 = 0.3001 | 711.75 ± 4.6 | –

Reference: the NIST ThermoML archive (doi:10.1021/acs.jced.8b00554)
